# Experimental data from ChEMBL document CHEMBL3400061, “Structure-activity relationships of IKM-159: Diverted synthesis and biological evaluation of a series of C5-oxy analogs” (Bioorg Med Chem Lett, 2015).
# Calls of active or inactive are those of the source. No cut-off for these calls is given here.
# Columns and labels:
# Type in all cases: functional, organism-based
# Mus musculus [1] = experiment: Effect on behavior in ddY mouse at 100 ug, icv
# Mus musculus [2] = experiment: Suppression of voluntary movements in ddY mouse at 100 ug, icv
# Mus musculus [3] = experiment: Induction of loss of body flaccidness in ddY mouse at 100 ug, icv
# Mus musculus [4] = experiment: Induction of loss of body motion in ddY mouse at 100 ug, icv
SMILES,Activity (Mus musculus [1]),other results
O=C(O)C[C@@]12O[C@H]3CC(=O)O[C@H]3[C@@H]1C(=O)N[C@H]2C(=O)O,inactive,–
C=C[C@@H]1O[C@@]2(CC(=O)O)[C@H](C(=O)O)NC(=O)[C@H]2[C@@H]1O,inactive,–
O=C(O)C[C@@]12O[C@H]3C=CC(=O)O[C@H]3[C@@H]1C(=O)N[C@H]2C(=O)O,inactive,–
O=C(O)C[C@@]12O[C@H]3C=CCO[C@H]3[C@@H]1C(=O)N[C@H]2C(=O)O,–,Activity (Mus musculus [2]): Active
O=C(O)C[C@@]12O[C@H]3C=CCN[C@H]3[C@@H]1C(=O)N[C@H]2C(=O)O,–,Activity (Mus musculus [3]): Active; Activity (Mus musculus [4]): Active
